Reference: patent US20020137929A1, “1 - (3-heterocyclylphenyl) isothiourea, -isourea, -guanidine and -amidine herbicidal agents” (Intellectual Property Department, BASF Aktiengesellschaft, priority 1998, published 2002)

Tests used:
[1] = system: MOOVA (Monochoria); test: Postemergence weed control under flooded paddy conditions; assay type: in vivo, Monochoria vaginalis; conditions: postemergence weeds
In short: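 Herbicidal effect is judged by eye on a 0–9 scale versus control, 3–4 weeks after dosing. Dosing is into flood water kept 1.5–3 cm over the soil, at about 0.0313–0.500 kg/ha in aqueous/acetone 50/50 v/v, on 3–5 cm weeds and 1.5–2.5-leaf rice seedlings.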

[2] = system: ORYSAT (Rice, Tebonnet); test: Preemergence herbicidal evaluation; assay type: in vivo, Oryza sativa, (L.) Tebonnet; conditions: rated 4-5 weeks after treatment; for ORYSAT rating: preemergence, 0-9 scale
In short: (§1)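 Sown cups got a single aqueous acetone spray of test compound (roughly 0.0156–0.500 kg/ha) before seedlings emerged. Evaluation, 4–5 weeks on, used a 0–9 visual scale covering plant stand, vigor, size, malformation, chlorosis and general appearance compared with controls.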

[3] = system: CHEAL (Lambsquarters, Common); test: Preemergence herbicidal evaluation; assay type: in vivo, Chenopodium album; conditions: rated 4-5 weeks after treatment; for CHEAL rating: preemergence, 0-9 scale
In short: as §1

[4] = system: CASOB (Sicklepod); test: Postemergence herbicidal evaluation; assay type: in vivo, Cassia obtusifolia; conditions: for CASOB herbicidal rating / Herbicidal rating CASOB: postemergence
In short: (§2)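 Two-week seedlings sprayed postemergence at 40 psi; formulation: 1:1 acetone/water, 0.5% TWEEN 20; application ≈0.0156–0.500 kg/ha. Greenhouse grow-out, then 0–9 visual scoring at 4–5 weeks.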

[5] = system: CHEAL (Lambsquarters, Common); test: Postemergence herbicidal evaluation; assay type: in vivo, Chenopodium album; conditions: for CHEAL herbicidal rating / Herbicidal rating CHEAL: postemergence
In short: as §2

[6] = system: TRZAWR (Wheat, Winter, cv Riband); test: Postemergence herbicidal evaluation; assay type: in vivo, Triticum aestivum; conditions: for TRZAWR herbicidal rating / Herbicidal rating TRZAWR: postemergence
In short: as §2

[7] = Rate 0.0313 kg/ha, rated 3 to 4 weeks after treatment
[8] = Rate 0.0625 kg/ha, rated 3 to 4 weeks after treatment
[9] = Rate 0.1250 kg/ha, rated 3 to 4 weeks after treatment
[10] = Rate 0.2500 kg/ha, rated 3 to 4 weeks after treatment

CCOC(=O)CN1C(=O)C(CC(=O)NOC)SC1=Nc1cc(-n2c(=O)cc(C(F)(F)F)n(C)c2=O)c(F)cc1Cl (centres unmarked) [Compound 83, Ethyl 2-{{2-chloro-5-[3,6-dihydro-3-methyl-2,6-dioxo-4-(trifluoromethyl)-1(2H)-pyrimidinyl]-4-fluorophenyl}imino}-5-[(methoxycarbamoyl)methyl]-4-oxo-3-thiazolidineacetate]
Herbicidal rating MOOVA [1, 7]: 9.0 | Herbicidal rating MOOVA [1, 8]: 9.0 | Herbicidal rating MOOVA [1, 9]: 9.0 | Herbicidal rating MOOVA [1, 10]: 9.0 | ORYSAT rating ([2]; 0.0156 kg/ha): 0.0 | ORYSAT rating ([2]; 0.0313 kg/ha): 0.0 | ORYSAT rating ([2]; 0.0625 kg/ha): 0.0 | ORYSAT rating ([2]; 0.1250 kg/ha): 0.0 | ORYSAT rating ([2]; 0.2500 kg/ha): 0.0 | ORYSAT rating ([2]; 0.5000 kg/ha): 5.0 | CHEAL rating ([3]; 0.0156 kg/ha): 9.0 | CHEAL rating ([3]; 0.0313 kg/ha): 9.0 | CHEAL rating ([3]; 0.0625 kg/ha): 9.0 | CHEAL rating ([3]; 0.1250 kg/ha): 9.0 | CHEAL rating ([3]; 0.2500 kg/ha): 9.0 | CHEAL rating ([3]; 0.5000 kg/ha): 9.0 | CASOB herbicidal rating ([4]; rate 0.0156 kg/ha): 0.0 | CASOB herbicidal rating ([4]; rate 0.0313 kg/ha): 9.0 | CASOB herbicidal rating ([4]; rate 0.0625 kg/ha): 7.0 | CASOB herbicidal rating ([4]; rate 0.1250 kg/ha): 9.0 | CHEAL herbicidal rating ([5]; rate 0.0156 kg/ha): 5.0 | CHEAL herbicidal rating ([5]; rate 0.0313 kg/ha): 7.0 | CHEAL herbicidal rating ([5]; rate 0.0625 kg/ha): 9.0 | CHEAL herbicidal rating ([5]; rate 0.1250 kg/ha): 9.0 | TRZAWR herbicidal rating ([6]; rate 0.0156 kg/ha): 3.5 | TRZAWR herbicidal rating ([6]; rate 0.0313 kg/ha): 4.0 | TRZAWR herbicidal rating ([6]; rate 0.0625 kg/ha): 4.5 | TRZAWR herbicidal rating ([6]; rate 0.1250 kg/ha): 6.5

Cn1c(C(F)(F)F)cc(=O)n(-c2cc(N=C3NC(=O)CS3)c(Cl)cc2F)c1=O [Compound 39, 3-{4-Chloro-2-fluoro-5-[(4-oxo-2-thiazolidinylidene)amino]phenyl}-1-methyl-6-(trifluoromethyl)-2,4(1H,3H)-pyrimidinedione]
Herbicidal rating MOOVA ([1]; rate 0.0313 kg/ha, 3-4 weeks after treatment): 9.0 | Herbicidal rating MOOVA ([1]; rate 0.0625 kg/ha, 3-4 weeks after treatment): 9.0 | Herbicidal rating MOOVA ([1]; rate 0.1250 kg/ha, 3-4 weeks after treatment): 9.0 | Herbicidal rating MOOVA ([1]; rate 0.2500 kg/ha, 3-4 weeks after treatment): 9.0 | Preemergence herbicidal rating ORYSAT ([2]; rate 0.0156 kg/ha): 0.0 | Preemergence herbicidal rating ORYSAT ([2]; rate 0.0313 kg/ha): 0.0 | Preemergence herbicidal rating ORYSAT ([2]; rate 0.0625 kg/ha): 0.0 | Preemergence herbicidal rating ORYSAT ([2]; rate 0.1250 kg/ha): 1.0 | Preemergence herbicidal rating ORYSAT ([2]; rate 0.2500 kg/ha): 2.0 | Preemergence herbicidal rating CHEAL ([3]; rate 0.0156 kg/ha): 1.0 | Preemergence herbicidal rating CHEAL ([3]; rate 0.0313 kg/ha): 0.0 | Preemergence herbicidal rating CHEAL ([3]; rate 0.0625 kg/ha): 7.0 | Preemergence herbicidal rating CHEAL ([3]; rate 0.1250 kg/ha): 7.0 | Preemergence herbicidal rating CHEAL ([3]; rate 0.2500 kg/ha): 9.0 | Postemergence herbicidal rating CASOB ([4]; Rate 0.0158 kg/ha): 0.0 | Postemergence herbicidal rating CASOB ([4]; Rate 0.0315 kg/ha): 0.0 | Postemergence herbicidal rating CASOB ([4]; Rate 0.0630 kg/ha): 0.0 | Postemergence herbicidal rating CHEAL ([5]; Rate 0.0158 kg/ha): 1.0 | Postemergence herbicidal rating CHEAL ([5]; Rate 0.0315 kg/ha): 1.0 | Postemergence herbicidal rating CHEAL ([5]; Rate 0.0630 kg/ha): 1.0 | Postemergence herbicidal rating TRZAWR ([6]; Rate 0.0158 kg/ha): 2.0 | Postemergence herbicidal rating TRZAWR ([6]; Rate 0.0315 kg/ha): 1.5 | Postemergence herbicidal rating TRZAWR ([6]; Rate 0.0630 kg/ha): 2.5

CC(C)S(=O)(=O)NC(=O)CC1SC(=Nc2cc(-n3c(=O)cc(C(F)(F)F)n(C)c3=O)c(F)cc2Cl)N(C)C1=O (centres unmarked) [Compound 119, 2-{{2-Chloro-5-[3,6-dihydro-3-methyl-2,6-dioxo-4-(trifluoromethyl)-1(2H)-pyrimidinyl]-4-fluorophenyl}imino}-N-(isopropylsulfonyl)-3-methyl-4-oxo-5-thiazolidineacetamide]
Herbicidal rating MOOVA [1, 7]: 4.0 | Herbicidal rating MOOVA [1, 8]: 7.0 | Herbicidal rating MOOVA [1, 9]: 8.0 | Herbicidal rating MOOVA [1, 10]: 9.0 | Preemergence herbicidal rating ORYSAT ([2]; rate 0.0156 kg/ha): 0.0 | Preemergence herbicidal rating ORYSAT ([2]; rate 0.0313 kg/ha): 0.0 | Preemergence herbicidal rating ORYSAT ([2]; rate 0.0625 kg/ha): 0.0 | Preemergence herbicidal rating ORYSAT ([2]; rate 0.1250 kg/ha): 0.0 | Preemergence herbicidal rating ORYSAT ([2]; rate 0.2500 kg/ha): 0.0 | Preemergence herbicidal rating CHEAL ([3]; rate 0.0156 kg/ha): 9.0 | Preemergence herbicidal rating CHEAL ([3]; rate 0.0313 kg/ha): 9.0 | Preemergence herbicidal rating CHEAL ([3]; rate 0.0625 kg/ha): 9.0 | Preemergence herbicidal rating CHEAL ([3]; rate 0.1250 kg/ha): 9.0 | Preemergence herbicidal rating CHEAL ([3]; rate 0.2500 kg/ha): 9.0 | Herbicidal rating CASOB ([4]; rate 0.0156 kg/ha): 3.0 | Herbicidal rating CASOB ([4]; rate 0.0313 kg/ha): 5.0 | Herbicidal rating CASOB ([4]; rate 0.0625 kg/ha): 7.0 | Herbicidal rating CHEAL ([5]; rate 0.0156 kg/ha): 9.0 | Herbicidal rating CHEAL ([5]; rate 0.0313 kg/ha): 9.0 | Herbicidal rating CHEAL ([5]; rate 0.0625 kg/ha): 9.0 | Herbicidal rating TRZAWR ([6]; rate 0.0156 kg/ha): 2.5 | Herbicidal rating TRZAWR ([6]; rate 0.0313 kg/ha): 3.5 | Herbicidal rating TRZAWR ([6]; rate 0.0625 kg/ha): 3.5

CN(C)N1C(=O)CSC1=Nc1cc(-n2c(=O)cc(C(F)(F)F)n(C)c2=O)c(F)cc1Cl [Compound 23, 3-{4-Chloro-5-{[3-(dimethylamino)-4-oxo-2-thiazolidinylidine]amino}-2-fluorophenyl}-1-methyl-6-(trifluoromethyl)-2,4(1H,3H)-pyrimidinedione]
Herbicidal rating MOOVA ([1]; rate 0.1160 kg/ha, 3-4 weeks after treatment): 9.0 | Herbicidal rating MOOVA ([1]; rate 0.2310 kg/ha, 3-4 weeks after treatment): 9.0 | Herbicidal rating MOOVA ([1]; rate 0.4630 kg/ha, 3-4 weeks after treatment): 9.0 | ORYSAT preemergence herbicidal rating ([2]; rate 0.0156 kg/ha): 0.0 | ORYSAT preemergence herbicidal rating ([2]; rate 0.0313 kg/ha): 0.0 | ORYSAT preemergence herbicidal rating ([2]; rate 0.0625 kg/ha): 1.0 | ORYSAT preemergence herbicidal rating ([2]; rate 0.1250 kg/ha): 1.0 | ORYSAT preemergence herbicidal rating ([2]; rate 0.2500 kg/ha): 7.0 | CHEAL preemergence herbicidal rating ([3]; rate 0.0156 kg/ha): 0.0 | CHEAL preemergence herbicidal rating ([3]; rate 0.0313 kg/ha): 1.0 | CHEAL preemergence herbicidal rating ([3]; rate 0.0625 kg/ha): 7.0 | CHEAL preemergence herbicidal rating ([3]; rate 0.1250 kg/ha): 9.0 | CHEAL preemergence herbicidal rating ([3]; rate 0.2500 kg/ha): 9.0 | CASOB herbicidal rating ([4]; rate 0.0158 kg/ha): 0.0 | CASOB herbicidal rating ([4]; rate 0.0315 kg/ha): 1.0 | CASOB herbicidal rating ([4]; rate 0.0630 kg/ha): 3.0 | CHEAL herbicidal rating ([5]; rate 0.0158 kg/ha): 2.0 | CHEAL herbicidal rating ([5]; rate 0.0315 kg/ha): 7.0 | CHEAL herbicidal rating ([5]; rate 0.0630 kg/ha): 9.0 | TRZAWR herbicidal rating ([6]; rate 0.0158 kg/ha): 2.5 | TRZAWR herbicidal rating ([6]; rate 0.0315 kg/ha): 4.0 | TRZAWR herbicidal rating ([6]; rate 0.0630 kg/ha): 5.0

C#CCOC(=O)CC1SC(=Nc2cc(-n3c(=O)cc(C(F)(F)F)n(C)c3=O)c(F)cc2Cl)N(CC=C)C1=O (centres unmarked) [Compound 67, 2-Propynyl 3-allyl-2-{{2-chloro-5-[3,6-dihydro-3-methyl-2,6-dioxo-4-(trifluoromethyl)-1(2H)-pyrimidinyl]-4-fluorophenyl}imino}-4-oxo-5-thiazolidineacetate]
Herbicidal rating MOOVA [1, 7]: 9.0 | Herbicidal rating MOOVA [1, 8]: 9.0 | Herbicidal rating MOOVA [1, 9]: 9.0 | Herbicidal rating MOOVA [1, 10]: 9.0 | Preemergence herbicidal rating ORYSAT ([2]; rate 0.0156 kg/ha): 0.0 | Preemergence herbicidal rating ORYSAT ([2]; rate 0.0313 kg/ha): 0.0 | Preemergence herbicidal rating ORYSAT ([2]; rate 0.0625 kg/ha): 0.0 | Preemergence herbicidal rating ORYSAT ([2]; rate 0.1250 kg/ha): 1.0 | Preemergence herbicidal rating ORYSAT ([2]; rate 0.2500 kg/ha): 1.0 | Preemergence herbicidal rating CHEAL ([3]; rate 0.0156 kg/ha): 2.0 | Preemergence herbicidal rating CHEAL ([3]; rate 0.0313 kg/ha): 9.0 | Preemergence herbicidal rating CHEAL ([3]; rate 0.0625 kg/ha): 9.0 | Preemergence herbicidal rating CHEAL ([3]; rate 0.1250 kg/ha): 9.0 | Preemergence herbicidal rating CHEAL ([3]; rate 0.2500 kg/ha): 9.0 | CASOB herbicidal rating ([4]; rate 0.0158 kg/ha): 0.0 | CASOB herbicidal rating ([4]; rate 0.0315 kg/ha): 2.0 | CASOB herbicidal rating ([4]; rate 0.0630 kg/ha): 3.0 | CHEAL herbicidal rating ([5]; rate 0.0158 kg/ha): 4.0 | CHEAL herbicidal rating ([5]; rate 0.0315 kg/ha): 6.0 | CHEAL herbicidal rating ([5]; rate 0.0630 kg/ha): 9.0 | TRZAWR herbicidal rating ([6]; rate 0.0158 kg/ha): 5.0 | TRZAWR herbicidal rating ([6]; rate 0.0315 kg/ha): 6.0 | TRZAWR herbicidal rating ([6]; rate 0.0630 kg/ha): 6.5
